Source: patent publication US7091038B2, “Ecdysone receptor-based inducible gene expression system” (RheoGene, Inc., priority 2000, dated 2006)

Columns and labels:
GAL4USP + VP16CfEcR [1] = assay: Transactivation of reporter gene through switch 1.5 in 3T3 cells; assay type: cell-based, Choristoneura fumiferana; settings: switch 1.5, pGAL4RELuc
Description: (§1) This construct was prepared in the same way as switch 1.3 except MmRXRDEF was replaced with CfUSPDEF (SEQ ID NO: 67).
(§2) The cells were harvested and reporter activity was assayed.
(§3) The cells were plated when they reached 50% confluency.
(§4) Cells were harvested 24–48 hr after adding ligands. […] Twenty μl of lysate was assayed.

GAL4USP + VP16CfEcR [2] = assay: Transactivation of reporter gene through switch 1.5 in 293 cells; assay type: cell-based, Choristoneura fumiferana; settings: switch 1.5, pGAL4RELuc
Description: as §1, §2
(§5) The same procedures described for CHO were followed for 293 cells except that the cells were plated in biocoated plates to avoid clumping.
as §4

[3] = tested on: EcR/RXR receptor combinations; assay: Truncated CfEcR and MmRXR receptor combinations, luciferase reporter in NIH3T3 cells; assay type: cell-based, Choristoneura fumiferana; Mus musculus; settings: 0, 1, 5 or 25 uM ligand for 48 hr, FIGS. 11–14
Description: Briefly, polynucleotides encoding EcR or RXR receptors were truncated at the junctions of A/B, C, D, E and F domains and fused to either a GAL4 DNA binding domain encoding polynucleotide (SEQ ID NO: 43) for CfEcR, or a VP16 activation domain encoding polynucleotide (SEQ ID NO: 49) for MmRXR as described in Example 1. The resulting receptor truncation/fusion polypeptides were assayed in NIH3T3 cells. Plasmid pFRLUC (Stratagene) encoding a luciferase polypeptide was used as a reporter gene construct and pTKRL (Promega) encoding a Renilla luciferase polypeptide under the control of the constitutive TK promoter was used to normalize the transfections as described above. The analysis was performed in triplicates and mean luciferase counts were determined as described above. […]

GAL4EcR + VP16USP [4] = assay: Transactivation of reporter gene through switch 1.2 in 293 cells; assay type: cell-based, Choristoneura fumiferana; settings: switch 1.2, pGAL4RELuc
Description: (§6) This construct was prepared in the same way as in switch 1.1 above except MmRXRDEF was replaced with the D, E and F domains from spruce budworm USP (“CfUSPDEF”; SEQ ID NO: 67). The constructs used in this example are similar to those disclosed in U.S. Pat. No. 5,880,333 except that Choristoneura fumiferana USP rather than Drosophila melanogaster USP was utilized.
as §2, §5, §4

GAL4EcR + VP16USP [5] = assay: Transactivation of reporter gene through switch 1.2 in CV1 cells; assay type: cell-based, Choristoneura fumiferana; settings: switch 1.2, pGAL4RELuc
Description: as §6, §2, §3
The same procedures described for NIH3T3 cells were followed for CV1 cells
as §4

GAL4CfEcRVP16 = assay: Transactivation of reporter gene through switch 1.6 in 3T3 cells; assay type: cell-based, Choristoneura fumiferana; settings: switch 1.6, pGAL4RELuc
Description: This construct was prepared so that both the GAL4 DNABD and the VP16AD were placed on the same molecule. GAL4DNABD (SEQ ID NO: 43) and VP16AD (SEQ ID NO: 49) were fused to CfEcRDEF (SEQ ID NO: 3) at N-and C-termini respectively.
as §2, §3, §4

DmVgRXR + MmRXR = DmVgRXR + MmRXR (Drosophila melanogaster, UniProt P34021, E282G/G283S/G286V); assay: Transactivation of reporter gene through switch 1.8 in 293 cells; assay type: cell-based, Drosophila melanogaster; Mus musculus; parameters: host or cells: CHO, NIH3T3, 293 or CV1 cells; settings: switch 1.8, pIND(SP1)LacZ
Sequence of DmVgRXR + MmRXR (P28700 whole entry, the tested form may be a part): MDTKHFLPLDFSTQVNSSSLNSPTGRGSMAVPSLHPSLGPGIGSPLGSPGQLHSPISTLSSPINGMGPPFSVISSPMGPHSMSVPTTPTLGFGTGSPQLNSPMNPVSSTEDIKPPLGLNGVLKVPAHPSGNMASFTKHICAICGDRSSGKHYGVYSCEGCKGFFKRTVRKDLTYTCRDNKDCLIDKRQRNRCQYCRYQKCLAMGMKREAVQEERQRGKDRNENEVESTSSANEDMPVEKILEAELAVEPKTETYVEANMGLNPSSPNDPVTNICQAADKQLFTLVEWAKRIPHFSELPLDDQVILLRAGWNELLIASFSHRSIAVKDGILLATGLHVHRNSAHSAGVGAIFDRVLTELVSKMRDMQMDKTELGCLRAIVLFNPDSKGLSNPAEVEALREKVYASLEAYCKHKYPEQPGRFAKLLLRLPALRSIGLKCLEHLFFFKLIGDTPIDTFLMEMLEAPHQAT
Sequence of DmVgRXR + MmRXR (P34021 whole entry E282G/G283S/G286V, the tested form may be a part): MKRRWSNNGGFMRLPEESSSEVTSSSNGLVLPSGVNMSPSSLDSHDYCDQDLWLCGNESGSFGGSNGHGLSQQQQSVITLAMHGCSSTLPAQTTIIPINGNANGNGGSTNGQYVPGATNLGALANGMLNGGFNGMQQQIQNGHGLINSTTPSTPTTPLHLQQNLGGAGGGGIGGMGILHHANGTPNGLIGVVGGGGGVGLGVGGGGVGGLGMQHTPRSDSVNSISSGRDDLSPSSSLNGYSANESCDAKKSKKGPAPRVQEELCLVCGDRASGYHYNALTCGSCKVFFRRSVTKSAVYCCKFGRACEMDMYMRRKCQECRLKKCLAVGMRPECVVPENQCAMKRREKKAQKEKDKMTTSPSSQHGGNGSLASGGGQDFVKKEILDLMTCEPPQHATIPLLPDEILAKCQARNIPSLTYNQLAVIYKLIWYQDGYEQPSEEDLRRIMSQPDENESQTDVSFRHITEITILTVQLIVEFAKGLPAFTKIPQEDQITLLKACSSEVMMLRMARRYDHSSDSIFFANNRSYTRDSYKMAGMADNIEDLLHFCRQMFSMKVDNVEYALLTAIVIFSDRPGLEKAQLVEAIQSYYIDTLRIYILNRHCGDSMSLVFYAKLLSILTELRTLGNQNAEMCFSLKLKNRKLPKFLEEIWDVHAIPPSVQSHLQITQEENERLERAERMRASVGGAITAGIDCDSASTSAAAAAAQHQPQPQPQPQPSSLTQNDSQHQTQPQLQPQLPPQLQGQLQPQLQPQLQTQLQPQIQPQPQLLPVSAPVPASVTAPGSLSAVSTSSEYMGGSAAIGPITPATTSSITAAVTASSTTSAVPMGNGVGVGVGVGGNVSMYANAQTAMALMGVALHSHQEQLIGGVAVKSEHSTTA
Text: This system was purchased from Invitrogen Corp., Carlsbad, California. It comprises a Drosophila melanogaster EcR (“DmEcR”) with a modified DNABD fused to VP16AD and placed under the control of a CMV promoter (SEQ ID NO: 68). Full length MmRXR (SEQ ID NO: 62) was placed under the control of the RSV promoter (SEQ ID NO: 69). The reporter, pIND(SP1)LacZ, contains five copies of a modified ecdysone response element (“EcRE”, E/GRE), three copies of an SPI enhancer, and a minimal heat shock promoter, all of which were placed upstream to the LacZ reporter gene.
as §2, §5, §4

CCc1c(OC)cccc1C(=O)NN(C(=O)c1cc(C)cc(C)c1)C(C)(C)C [N-(2-ethyl-3-methoxybenzoyl)-N′-(3,5-dimethylbenzoyl)-N′-t-butylhydrazine]
Mean Fold Activation Through N-(2-ethyl-3-methoxybenzoyl)-N′-(3,5-dimethylbenzoyl)-N′-t-butylhydrazine (GAL4USP + VP16CfEcR [1]): 3 fold | Mean Fold Activation Through N-(2-ethyl-3-methoxybenzoyl)-N′-(3,5-dimethylbenzoyl)-N′-t-butylhydrazine (GAL4USP + VP16CfEcR [2]): 2 fold | Sensitivity of the EcR/RXR switch to the ligand [3]: much more sensitive | Mean Fold Activation Through N-(2-ethyl-3-methoxybenzoyl)-N′-(3,5-dimethylbenzoyl)-N′-t-butylhydrazine (GAL4EcR + VP16USP [4]): 2 fold | Mean Fold Activation Through N-(2-ethyl-3-methoxybenzoyl)-N′-(3,5-dimethylbenzoyl)-N′-t-butylhydrazine (GAL4EcR + VP16USP [5]): 2 fold | Mean Fold Activation Through N-(2-ethyl-3-methoxybenzoyl)-N′-(3,5-dimethylbenzoyl)-N′-t-butylhydrazine (GAL4CfEcRVP16): 7 fold | Mean Fold Activation Through N-(2-ethyl-3-methoxybenzoyl)-N′-(3,5-dimethylbenzoyl)-N′-t-butylhydrazine (DmVgRXR + MmRXR): 21 fold
